Experimental data reported in patent publication USRE39420E1, “1,2-Diphenylpyrrole derivatives, their preparation and their therapeutic uses” (Sankyo Company, Limited, priority 1996, dated 2006).

What was measured:
[1] = target: T1, Human Recombinant Cyclooxygenase-2 (Homo sapiens, UniProt P35354); assay: Inhibitory activity on human recombinant cyclooxygenase-2 microsomes from COS cells (PGE2 ELISA); type: biochemical; details: for IC50: human recombinant COX-2 microsomes, PGE2 formation, read-out: Inhibitory Effect on COX-2 [IC50 (μM)]; for Selectivity (COX-1/COX-2): ratio of IC50 COX-1/COX-2
T1 construct: made in house; host or cells: COS cells (transient expression; microsomes prepared after 66 hours)
T1 sequence (P35354 18-604): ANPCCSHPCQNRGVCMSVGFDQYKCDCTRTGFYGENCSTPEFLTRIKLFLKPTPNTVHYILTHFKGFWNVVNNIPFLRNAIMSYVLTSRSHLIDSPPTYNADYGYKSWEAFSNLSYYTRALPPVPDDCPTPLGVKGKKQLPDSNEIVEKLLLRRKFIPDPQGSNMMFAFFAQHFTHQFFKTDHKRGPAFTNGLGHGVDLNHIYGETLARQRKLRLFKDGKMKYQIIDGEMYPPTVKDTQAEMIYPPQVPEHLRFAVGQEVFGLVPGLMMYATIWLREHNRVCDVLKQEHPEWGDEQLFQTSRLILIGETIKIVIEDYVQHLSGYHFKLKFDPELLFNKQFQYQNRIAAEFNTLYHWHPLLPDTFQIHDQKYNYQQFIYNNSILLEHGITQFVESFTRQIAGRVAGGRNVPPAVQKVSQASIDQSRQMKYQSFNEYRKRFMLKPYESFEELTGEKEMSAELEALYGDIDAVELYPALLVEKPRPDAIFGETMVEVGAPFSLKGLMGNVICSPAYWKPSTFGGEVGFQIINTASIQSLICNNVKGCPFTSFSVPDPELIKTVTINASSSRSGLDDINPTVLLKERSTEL
Description: In order to prepare cyclooxygenase-1 (COX-1) microsomes, ram seminal vesicles were homogenised by a blender. To prepare cyclooxygenase-2 (COX-2) microsomes, an expression vector which contains the human COX-2 gene was introduced into COS cells. The cells were homogenised by sonication after 66 hours cultivation. Microsomes were then prepared in accordance with conventional methods.
Enzyme activity was assayed as follows.
(§1) The assay mixture contained 10 μl of COX-1 or COX-2 microsomes (5 to 15 μg), 2 μl of sample dissolved in dimethyl sulfoxide, 50 μl of 200 mM Tris (pH 7.6), 10 μl of 20 mM reduced glutathione, 10 μl of 10 mM epinephrine, and 15.5 μl of distilled water. After preincubation at 37° C. for 15 minutes, 2.5 μl of 10 μM arachidonic acid (dissolved in ethanol) were then added to the mixture (final volume of 100 μl) and allowed to react at 37° C. for 30 minutes. The final dimethyl sulfoxide and ethanol concentrations were 2% and 2.5%, respectively. To the reaction mixture were then added 15 μl of ice-cooled 0.2M HCl to stop the reaction, and the mixture was cooled at 4° C. for 5 minutes. 15 μl of a 0.2M aqueous solution of sodium hydroxide were then added to the reaction mixture to neutralise the pH. The amount of PGE2, in the reaction mixture was measured using a commercially available ELISA kit (Cayman). IC50 was calculated from the regression line determined by the inhibition rates of PGE2 formation and the concentrations of the compound.

[2] = target: T2, Cyclooxygenase-1 from Ram Seminal Vesicle Microsomes (RSVM) (Ovis aries, UniProt P05979); assay: Inhibitory activity on cyclooxygenase-1 from ram seminal vesicle microsomes (PGE2 ELISA); type: biochemical; details: PGE2 formation, read-out: Inhibitory Effect on COX-1[IC50(μM)]
T2 construct: ram seminal vesicles were homogenised by a blender; from tissue; host or cells: ram seminal vesicles (microsomes)
T2 sequence (P05979 25-600): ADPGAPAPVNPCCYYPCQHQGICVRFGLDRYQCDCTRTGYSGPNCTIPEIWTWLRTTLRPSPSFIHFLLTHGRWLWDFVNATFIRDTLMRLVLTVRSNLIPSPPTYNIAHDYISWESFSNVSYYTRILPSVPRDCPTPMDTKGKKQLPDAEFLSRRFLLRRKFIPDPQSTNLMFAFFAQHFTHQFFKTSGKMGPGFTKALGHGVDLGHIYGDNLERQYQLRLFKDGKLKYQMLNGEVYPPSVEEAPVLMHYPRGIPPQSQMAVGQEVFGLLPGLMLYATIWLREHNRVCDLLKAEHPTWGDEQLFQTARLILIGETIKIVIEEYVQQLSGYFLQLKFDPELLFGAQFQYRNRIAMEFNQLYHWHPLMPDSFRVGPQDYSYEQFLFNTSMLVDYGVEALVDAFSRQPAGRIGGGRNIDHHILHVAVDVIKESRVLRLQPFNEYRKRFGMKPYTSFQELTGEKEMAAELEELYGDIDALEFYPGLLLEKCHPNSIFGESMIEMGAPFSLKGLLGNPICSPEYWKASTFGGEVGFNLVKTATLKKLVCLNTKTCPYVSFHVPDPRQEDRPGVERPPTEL
Description: as §1, with “In order to prepare cyclooxygenase-1 (COX-1) microsomes, ram seminal vesicles were homogenised by a blender. To prepare cyclooxygenase-2 (COX-2) microsomes, an expression vector which contains the human COX-2 gene was introduced into COS cells. The cells were homogenised by sonication after 66 hours cultivation. Microsomes were then prepared in accordance with conventional methods. Enzyme activity was assayed as follows. The assay” for “The assay”

[3] = test system: yeast-inflamed pain in rats; assay: Analgesic effect on yeast-inflamed pain in rats (Randall-Selitto method); type: in vivo, Wistar-Imamichi rats; details: Rattus norvegicus, oral, pain threshold 0.5, 1 and 2 hours after administration, read-out: Efficacy Rate (No. of animals in which drug was effective/No. of animals used in test) (converted)
Description: The compound was suspended in 0.5%tragacanth and administered orally at a volume of 5 ml/kg. The control group was administered with 0.5% tragacanth only as a vehicle.
Wistar-Imamichi rats (males, 5 week old, body weights: 80-100 g) were used in this test.
The test was conducted in accordance with the method of Winter and Flataker [J. Pharmacol. Exp. Ther. 150, 165-171, (1965)], which is a modification of the original method of Randall and Selitto [Arch. Int. Pharmacodyn. Ther. 111, 405-419, (1957)]. The rats were fasted for 16 hours prior to use. Inflammation was induced by subcutaneous injection of 0.1 ml of a suspension of 20% beer yeast (Sigma) into the right hind footpad of the animal. After 4.5 hours, increasing pressure was applied to the inflamed footpad at a constant speed using an Analgesy meter (Trade mark) (Ugo-Basile Co.).
First the average of pain threshold values at each time point (0.5, 1, and 2 hr) was calculated in a control group. If a pain threshold value exceeded 2 times the control average value at the same time point even once in the drug-treated groups, then the animal was considered to indicate efficacy. Efficacy rates of the drug were estimated by the evaluation method of Blake [J. Pharm. Pharm. 19, 367-373, (1967)].

[4] = test system: Carrageenan-induced Paw Edema in rats; assay: Carrageenan-induced paw edema test; type: in vivo, Wistar-Imamichi rats; details: Rattus norvegicus, oral, 3 hours after carrageenan, read-out: Inhibition Rate (%)
Description: The same test compounds were subjected to the test as those in the Randall-Selitto test of Experiment 3. Wistar-Imamichi rats (males, 6 week old, body weights: 110-120 g) were used in this test.
The method of Winter, et al. [Proc. Soc. Exp. Biol. Med. 111, 544-547, (1962)] was slightly modified to perform the test [Sankyo Annual Research Report 39, 77-111, (1989)]. The rats were fasted for 16 hours prior to use. Inflammatory edema was induced by the subcutaneous injection of 0.05 ml of a 1% carrageenan (Viscarin 402) solution into the right hind paw of the animal. The test compounds were administered orally 30 minutes before injection of carrageenan. The volume of the right hind foot was measured with a Plethysmometer (Trade mark) (Ugo-Basile Co.) just before administration of the test compound and 3 hours after injection of carrageenan to determine the edema intensity [(right foot volume after 3 hours/right foot volume before injection)-1].

gastric mucosa = assay: Irritative effect on gastric mucosa; type: in vivo, Wistar rats; details: oral; dose producing 50% incidence of gastric ulcers, 3.5 hours after dosing
Description: Experiments were performed according to the method described by Jahn and Adrian [Arzneim.-Forsch. 19, 36, (1969)]. Male Wistar rats weighing approximately 120 g were fasted for 16 hours before the experiment. The drugs were administered orally to rats as described in Experiment 3. Three and the half hours after dosing, the animals were killed under ether-anesthesia and the stomachs were placed into 1% of formalin. The stomach was opened by cutting along the greater curvature and the number and length of lesions were counted under a microscope (6.3×10). The ulcerogenicity in each animal was assessed according to Hitchens et. al. [Pharmacologist 9, 242, (1967)]. Incidence was determined as the rate of rats with 4 or more ulcers of more than 0.5 mm length, and UD50's (doses producing 50% incidence) were calculated from the incidence and the dose by probit (=probability unit) method.

Structure (SMILES)	IC50 [1] [µM]	Selectivity (COX-1/COX-2) [1]	IC50 [2] [µM]	responders at 12.5 mg/kg [3] [%]	inhibition in vivo at 50 mg/kg [4] [%]	UD50 (gastric mucosa) [mg/kg]
Cc1cc(-c2ccc(S(N)(=O)=O)cc2)n(-c2ccc(F)cc2)c1 [Example 20, 1-(4-Fluorophenyl)-4-methyl-2-(4-sulfamoylphenyl) pyrrole]	0.023	3696	85			
Cc1cc(-c2ccc(S(N)(=O)=O)cc2)n(-c2ccc(F)cc2)c1Cl [Example 38, 5-Chloro-1-(4-fluorophenyl)-4-methyl-2-(4-sulfamoylphenyl)pyrrole]	0.023	>4348	> 100			
Cc1cc(-c2ccc(S(C)(=O)=O)cc2)n(-c2ccc(C)c(C)c2)c1 [Example 56, 4-Methyl-1-(3,4-dimethylphenyl)-2-(4-methylsulfonylphenyl)pyrrole]	0.018	>5556	> 100			
Cc1ccc(-n2cc(C)cc2-c2ccc(S(N)(=O)=O)cc2)cc1 [Example 58, 4-Methyl-1-(4-methylphenyl)-2-(4-sulfamoylphenyl) pyrrole]	0.019	332	6.3			
COc1ccc(-n2cc(C)cc2-c2ccc(S(N)(=O)=O)cc2)cc1 [Example 62, 1-(4-Methoxyphenyl)-4-methyl-2-(4-sulfamoylphenyl)pyrrole]	0.0097	153	1.5	100	55	
Cc1cc(-c2ccc(Cl)cc2)n(-c2ccc(S(N)(=O)=O)cc2)c1 [Example 65, 2-(4-Chlorophenyl)-4-methyl-1-(4-sulfamoylphenyl) pyrrole]	0.015	867	13	100		>100
COc1ccc(-c2c(C)ccn2-c2ccc(S(N)(=O)=O)cc2)cc1 [Example 73, 2-(4-Methoxyphenyl)-3-methyl-1-(4-sulfamoylphenyl)pyrrole]	0.025	120	3		72	
COc1ccc(-c2cc(C)cn2-c2ccc(S(C)(=O)=O)cc2)cc1 [Example 80, 2-(4-Methoxyphenyl)-4-methyl-1-(4-methylsulfonylphenyl)pyrrole]	0.011	2273	25			>100
Cc1cc(-c2ccc(S(N)(=O)=O)cc2)n(-c2ccc(Cl)c(Cl)c2)c1 [Example 103]	0.01	370	3.7		56	>100
Cc1cc(-c2ccc(S(N)(=O)=O)cc2)n(-c2ccc(F)c(Cl)c2)c1 [Example 108]	< 0.01	>600	6		58	
Cc1cc(-c2ccc(S(N)(=O)=O)cc2)n(-c2ccc3c(c2)OCO3)c1 [Example 109]	0.023	165	3.8		77	
